Assay results reported in PubChem BioAssay AID434987 (Southern Research Specialized Biocontainment Screening …, 2010).
The source made the active and inactive calls. The rule behind the calls is not given here.

Test system: M. tuberculosis H37Rv growth inhibition with meropenem
Experiment: dose response, H37Rv, with and without meropenem (AID 434987);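 note: growth over 7 days at 37 °C before Alamar Blue read on day 9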
[1] = M. tuberculosis H37Rv growth inhibition, measured here: IC50 without meropenem
[2] = M. tuberculosis H37Rv growth inhibition, measured here: IC90 without meropenem
[3] = measured here: IC90 with meropenem

Structure (SMILES) | IC50 | IC50 [1] [µM] | IC90 [2] [µM] | IC90 [3] [µM]
COc1ccc2sc(-c3ccc(N(C)C)cc3)c(C#CC(C)(C)O)c2c1 | 19.8 µM | > 100 | > 100 | > 100
O=C1OC(/C=C/c2ccc(Cl)cc2Cl)=NC/1=C\c1cccs1 | 4.04 µM | 14.7 | 60.1 | 33.4
Nc1ccc(N=Nc2ccccc2O)c(N)c1 | 6.58 µM | 33.8 | > 100 | 34
O=[N+]([O-])c1cc(C(F)(F)F)ccc1NCCc1c[nH]c2ccc(O)cc12 | 33.9 µM (inactive) | 52.8 | > 100 | 72.9
Cc1ccc(CC(=O)Nc2nc3ccccc3[nH]2)cc1C | 6.31 µM | > 100 | > 100 | > 25
CCN(CC)CCCNC(=O)c1c(O)c2ccccc2n(Cc2ccccc2)c1=O | 12.6 µM (inactive) | 23.2 | 32.7 | 13.8
O=C(Cn1c(=O)c2cccn2c2ccccc21)NCCc1ccc(Cl)cc1 | > 100 µM (inactive) | > 100 | > 100 | > 100
Cc1cccc(N2CCN(CC3CCCCC3)CC2)c1C | 48.5 µM (inactive) | 90.5 | > 100 | 53.2
COC(=O)c1c(CSc2cccc(C)c2)noc1C(=O)NCc1ccco1 | > 100 µM (inactive) | > 100 | > 100 | > 100
Cc1ccccc1NC(=O)c1ccc(CN(c2ccccc2)S(=O)(=O)c2ccccc2)cc1 | > 100 µM (inactive) | > 100 | > 100 | > 100
COc1ccc(NC(C)C(=O)N/N=C/c2ccc([N+](=O)[O-])s2)cc1 (stereo unspecified) | 2.17 µM (inactive) | 3.12 | 4.8 | 4.79
CC(C)(C)c1cc(Cc2ccccc2)[nH]n1 | 28.2 µM (inactive) | 43.1 | > 100 | > 100
COc1ccc(/C=C/C(=O)N(C(C)C)C(C)C)cc1Br | 5.89 µM | 93 | > 100 | 96.4
NC(=O)Nc1ccc(C(=O)OCC(=O)Nc2ccc(Cl)cn2)cc1 | > 100 µM (inactive) | > 100 | > 100 | > 100
Cc1onc(-c2ccccc2)c1C(=O)Nc1ccc(-c2nnc3n2CCCCC3)cc1 | 23.8 µM (inactive) | 29.3 | 71.2 | 38.6
C/C(=N\NC(=O)c1cc2c(s1)CCC(C)C2)c1ccc[nH]1 (stereo unspecified) | 6.51 µM | > 100 | > 100 | > 100
COc1ccc(-c2cc(C(F)F)nc(-n3nc(C)cc3C)n2)cc1 | 24.3 µM (inactive) | 47.4 | > 100 | 54.1
CCCCOc1ccccc1NC(=O)c1ccco1 | > 100 µM (inactive) | > 100 | > 100 | > 100
CC[C@@]1(c2ccccc2OC)C(=O)N(C(=O)OC)N1C(=O)OC | 13.9 µM | > 100 | > 100 | > 100
O=C(CSc1nnc(-c2ccncc2)o1)c1cccc([N+](=O)[O-])c1 | 31.6 µM (inactive) | 46.9 | > 100 | 45.4
CN(C)c1ccc(S(=O)(=O)NCC(=O)OCC(=O)Nc2cccc(Cl)c2)cc1[N+](=O)[O-] | > 100 µM (inactive) | > 100 | > 100 | > 100
Cc1cc(C)n(-c2nc3ccccc3c(=O)n2OCC(=O)N(C)C)n1 | 7.74 µM | 79.2 | > 100 | 23.3
Cc1ccccc1OCC(=O)N/N=C/c1cccc(Oc2ccc([N+](=O)[O-])cc2[N+](=O)[O-])c1 | 1.14 µM | 4.24 | 47.8 | 5.4
Cc1ccc(/C=C/C(=O)OCC(=O)NC(C)c2ccccc2)o1 (stereo unspecified) | > 100 µM (inactive) | > 100 | > 100 | > 100
CC1CCCC(NC(=O)COC(=O)c2cccc(NS(=O)(=O)/C=C/c3ccccc3)c2)C1C (stereo unspecified) | > 100 µM (inactive) | > 100 | > 100 | > 100
Cc1cccc(NC(=O)c2cc3ccccc3c(=O)o2)n1 | 37.9 µM | > 100 | > 100 | > 100
O=C(c1cc2c(s1)CCCC2)n1cccn1 | 93.4 µM (inactive) | > 100 | > 100 | > 100
C[C@H](NC(=O)c1[nH]cnc1C(=O)Nc1cccc(Cl)c1)c1ccccc1 | 3.59 µM | > 100 | > 100 | > 100
Cn1c(SCC(=O)OC2CCCCC2)nnc1-c1ccc2c(c1)OCO2 | 7.93 µM | 30.5 | 70 | 34.9
